# Assays:
# Experiment in all cases: relative viability (nuclei count vs DMSO), 5 days (fraction); higher = more cells survive
# ALW-II-49-7 + Trametinib = compound: Cc1ccc(C(=O)Nc2cccc(C(F)(F)F)c2)cc1Nc1cncc(C(N)=O)c1 [ALW-II-49-7] + CC(=O)Nc1cccc(-n2c(=O)n(C3CC3)c(=O)c3c(Nc4ccc(I)cc4F)n(C)c(=O)c(C)c32)c1 [Trametinib] (partner 0.02 µM)
# Procedure, shortened: (§1)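 Lung cancer cell lines, seeded in 1536-well plates, were treated the following day by pin tool with a single drug or with five library-drug doses (not always all listed) in √10 steps on top of a fixed anchor-drug dose. Cells were fixed and nuclei stained in one step after 5 days, and nuclei were counted. Relative viability is the nuclei count for treated wells divided by that for vehicle wells, reported as medians of duplicate plates.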
# Dasatinib + OSI-027 = compound: Cc1nc(Nc2ncc(C(=O)Nc3c(C)cccc3Cl)s2)cc(N2CCN(CCO)CC2)n1 [Dasatinib] + COc1cccc2cc(-c3nc([C@H]4CC[C@H](C(=O)O)CC4)n4ncnc(N)c34)[nH]c12 [OSI-027] (partner 0.5 µM)
# Procedure, shortened: as §1
# Dasatinib + Palbociclib = compound: Cc1nc(Nc2ncc(C(=O)Nc3c(C)cccc3Cl)s2)cc(N2CCN(CCO)CC2)n1 [Dasatinib] + CC(=O)c1c(C)c2cnc(Nc3ccc(N4CCNCC4)cn3)nc2n(C2CCCC2)c1=O [Palbociclib] (partner 0.5 µM)
# Procedure, shortened: as §1
# ALW-II-49-7 + Decitabine = compound: Cc1ccc(C(=O)Nc2cccc(C(F)(F)F)c2)cc1Nc1cncc(C(N)=O)c1 [ALW-II-49-7] + Nc1ncn([C@H]2C[C@H](O)[C@@H](CO)O2)c(=O)n1 [Decitabine] (partner 2 µM)
# Procedure, shortened: as §1
Cell Line,relative viability (ALW-II-49-7 + Trametinib; first compound 0.08 µM),relative viability (ALW-II-49-7 + Trametinib; first compound 0.253 µM),relative viability (ALW-II-49-7 + Trametinib; first compound 0.8 µM),relative viability (ALW-II-49-7 + Trametinib; first compound 2.53 µM),relative viability (ALW-II-49-7 + Trametinib; first compound 8 µM),relative viability (Dasatinib + OSI-027; first compound 0.005 µM),relative viability (Dasatinib + OSI-027; first compound 0.01581 µM),relative viability (Dasatinib + OSI-027; first compound 0.05 µM),relative viability (Dasatinib + OSI-027; first compound 0.1581 µM),relative viability (Dasatinib + OSI-027; first compound 0.5 µM),relative viability (Dasatinib + Palbociclib; first compound 0.005 µM),relative viability (Dasatinib + Palbociclib; first compound 0.01581 µM),relative viability (Dasatinib + Palbociclib; first compound 0.05 µM),relative viability (Dasatinib + Palbociclib; first compound 0.1581 µM),relative viability (Dasatinib + Palbociclib; first compound 0.5 µM),relative viability (ALW-II-49-7 + Decitabine; first compound 0.08 µM),relative viability (ALW-II-49-7 + Decitabine; first compound 0.253 µM),relative viability (ALW-II-49-7 + Decitabine; first compound 0.8 µM),relative viability (ALW-II-49-7 + Decitabine; first compound 2.53 µM),relative viability (ALW-II-49-7 + Decitabine; first compound 8 µM)
HCC-15,0.396,0.4,0.399,0.353,0.387,0.641,0.652,0.526,0.412,0.454,0.714,0.669,0.673,0.578,0.565,0.596,0.654,0.626,0.624,0.644
HCC-44,1.08,0.994,1.03,1.09,1.26,0.65,0.754,0.466,0.337,0.273,1.07,0.878,1.06,1.14,1.29,0.971,0.974,0.945,0.996,0.913
HCC-78,0.867,0.702,0.633,0.572,0.78,0.317,0.361,0.267,0.326,0.257,0.459,0.429,0.443,0.382,0.239,0.68,0.639,0.71,0.666,0.619
HCC-366,0.33,0.361,0.404,0.275,0.288,0.662,0.338,0.365,0.375,0.243,0.412,0.185,0.173,0.114,0.0885,0.354,0.371,0.374,0.385,0.307
HCC-827,0.534,0.526,0.525,0.475,0.462,0.805,0.745,0.557,0.456,0.119,0.438,0.458,0.419,0.135,0.114,0.294,0.307,0.335,0.331,0.271
HOP-62,0.389,0.364,0.402,0.452,0.465,0.856,0.864,0.743,0.546,0.196,0.391,0.381,0.506,0.431,0.182,0.207,0.286,0.165,0.223,0.285
LC-2-ad,0.94,0.917,0.881,0.858,0.945,0.932,0.867,0.526,0.34,0.345,0.515,0.471,0.477,0.299,0.159,0.84,0.845,0.861,0.8,0.863
LCLC-97TM1,0.184,0.207,0.198,0.161,0.223,0.557,0.598,0.55,0.606,0.38,0.203,0.227,0.246,0.2,0.13,0.256,0.201,0.252,0.236,0.207
LCLC-103H,0.667,0.748,0.735,0.712,0.677,0.437,0.38,0.403,0.38,0.146,0.506,0.47,0.452,0.453,0.404,0.757,0.781,0.726,0.727,0.684
LK-2,0.963,0.583,0.636,–,0.479,0.2,0.174,0.158,0.167,0.172,0.583,–,0.41,0.217,0.223,0.393,0.288,0.301,–,0.252
LOU-NH91,0.755,0.787,0.804,–,0.706,0.705,0.604,0.595,0.526,0.344,0.569,0.51,0.553,0.498,0.369,0.785,0.824,0.844,–,0.861
LU99A,–,0.622,0.62,0.374,0.399,0.296,–,0.264,0.232,0.216,0.354,0.379,0.379,0.308,0.2,–,1.03,1,0.839,1.09
LXF-289,0.604,0.715,0.681,0.67,0.626,0.812,0.733,0.567,0.323,0.125,0.603,0.676,0.672,0.384,0.118,0.391,0.372,0.411,0.407,0.443
NCI-H23,0.434,0.371,0.448,0.37,0.37,0.497,0.502,0.615,0.492,0.325,0.536,0.476,0.38,0.34,0.271,0.311,0.286,0.303,0.328,0.333
NCI-H322M,0.484,0.533,0.506,0.472,0.515,0.549,0.483,0.351,0.213,0.168,0.435,0.382,0.365,0.326,0.228,0.618,0.774,0.637,0.756,0.671
NCI-H358,0.117,0.123,0.142,0.14,0.119,0.806,0.542,0.439,0.149,0.122,0.144,0.129,0.101,0.0794,0.0791,0.19,0.183,0.22,0.234,0.232

Cell Line,relative viability (ALW-II-49-7 + Trametinib; first compound 0.08 µM),relative viability (ALW-II-49-7 + Trametinib; first compound 0.253 µM),relative viability (ALW-II-49-7 + Trametinib; first compound 0.8 µM),relative viability (ALW-II-49-7 + Trametinib; first compound 2.53 µM),relative viability (ALW-II-49-7 + Trametinib; first compound 8 µM),relative viability (Dasatinib + OSI-027; first compound 0.005 µM),relative viability (Dasatinib + OSI-027; first compound 0.01581 µM),relative viability (Dasatinib + OSI-027; first compound 0.05 µM),relative viability (Dasatinib + OSI-027; first compound 0.1581 µM),relative viability (Dasatinib + OSI-027; first compound 0.5 µM),relative viability (Dasatinib + Palbociclib; first compound 0.005 µM),relative viability (Dasatinib + Palbociclib; first compound 0.01581 µM),relative viability (Dasatinib + Palbociclib; first compound 0.05 µM),relative viability (Dasatinib + Palbociclib; first compound 0.1581 µM),relative viability (Dasatinib + Palbociclib; first compound 0.5 µM),relative viability (ALW-II-49-7 + Decitabine; first compound 0.08 µM),relative viability (ALW-II-49-7 + Decitabine; first compound 0.253 µM),relative viability (ALW-II-49-7 + Decitabine; first compound 0.8 µM),relative viability (ALW-II-49-7 + Decitabine; first compound 2.53 µM),relative viability (ALW-II-49-7 + Decitabine; first compound 8 µM)
NCI-H441,0.41,0.494,0.381,0.69,0.443,0.784,0.582,0.742,0.424,0.307,0.265,0.191,0.2,0.14,0.115,0.257,0.229,0.253,0.208,0.253
NCI-H460,0.133,0.17,0.142,0.118,0.101,0.549,0.474,0.405,0.387,0.17,0.14,0.112,0.0827,0.06,0.0635,0.5,0.488,0.513,0.408,0.492
NCI-H520,0.62,0.661,0.53,0.552,0.519,0.24,0.144,0.158,0.151,0.133,0.172,0.156,0.131,0.1,0.119,0.559,0.472,0.497,0.531,0.561
NCI-H522,0.883,0.665,0.867,0.82,0.853,0.72,0.69,0.643,0.596,0.632,1.1,0.802,0.985,0.773,0.722,0.67,0.669,0.697,0.732,0.692
NCI-H647,0.434,0.475,0.453,0.441,0.239,0.672,0.303,0.251,0.213,0.118,0.314,0.22,0.162,0.0968,0.0812,0.322,0.321,0.396,0.374,0.307
NCI-H650,0.876,1.16,0.993,0.996,0.929,0.591,0.524,0.493,0.303,0.265,0.307,0.326,0.343,0.323,0.261,0.333,0.334,0.314,0.306,0.321
NCI-H661,0.529,0.606,0.521,0.567,0.53,0.686,0.604,0.586,0.522,0.402,0.429,0.412,0.386,0.345,0.282,0.519,0.583,0.574,0.541,0.5
NCI-H727,0.393,0.378,0.354,0.357,0.365,0.6,0.488,0.45,0.295,0.197,0.553,0.455,0.523,0.388,0.281,0.775,0.884,0.738,0.824,0.703
NCI-H838,0.631,0.531,0.433,0.49,0.453,0.409,0.266,0.265,0.252,0.179,0.193,0.156,0.182,0.148,0.141,0.413,0.433,0.483,0.447,0.48
NCI-H1355,0.371,0.467,0.474,0.384,0.438,0.434,0.291,0.287,0.272,0.271,0.36,0.282,0.299,0.244,0.224,0.329,0.366,0.391,0.436,0.376
NCI-H1395,0.906,1.1,1.3,–,0.938,0.615,0.7,0.541,0.361,0.35,0.594,0.588,0.535,0.443,0.304,0.674,0.712,0.632,–,0.642
NCI-H1437,0.486,0.573,0.332,0.512,0.509,1.01,0.863,0.837,0.798,0.365,0.353,0.331,0.335,0.302,0.277,0.551,0.553,0.594,0.624,0.644
NCI-H1648,0.522,0.317,0.462,0.347,0.449,0.264,0.274,0.306,0.268,0.24,0.281,0.29,0.334,0.298,0.243,0.545,0.48,0.531,0.454,0.509
NCI-H1650,0.438,0.688,0.557,0.666,0.78,0.571,0.355,0.318,0.219,0.171,0.282,0.12,0.184,0.138,0.177,0.447,0.399,0.432,0.462,0.493
NCI-H1651,0.839,0.772,0.824,0.781,0.808,0.801,0.503,0.529,0.572,0.487,0.523,0.494,0.514,0.4,0.36,0.637,0.669,0.606,0.604,0.51
NCI-H1666,0.864,0.927,0.865,0.948,0.803,0.915,0.843,0.849,0.733,0.486,0.661,0.594,0.637,0.656,0.632,0.751,0.735,0.735,0.898,0.714
